In ChEMBL document CHEMBL2176897, “Synthesis and biological evaluation (in vitro and in vivo) of cyclic arginine-glycine-aspartate (RGD) peptidomimetic-paclitaxel conjugates targeting integrin αVβ3” (J Med Chem, 2012):
pIC50: −log10 of the molar value. Active and inactive are the calls of the source. The calls are words filed in the database; no cut-off is given here.

Key:
[1] = test system: IGROV-1; test: Antitumor activity against cisplatin-resistant human IGROV1/Pt1 cells overexpressing integrin alphaVbeta3 receptors xenografted in athymic Swiss mouse assessed as absence of disease at 30 mg/kg, iv administered every 4 days for 4 times measured up to 10 days; type: functional, organism-based; design: dose 30 mg/kg
[2] = test system: IGROV-1; test: Induction of abberant mitosis in cisplatin-resistant human IGROV1/Pt1 cells overexpressing integrin alphaVbeta3 receptors xenografted in athymic Swiss mouse at 30 mg/kg, iv measured 24 hrs post fourth treatment by hematoxylin and eosin staining; type: functional, organism-based; design: dose 30 mg/kg
[3] = test system: PANC-1; test: Cytotoxicity against human PANC1 cells after 72 hrs by coulter counter analysis; type: functional, cell-based; conditions: PANC-1, 72 h
[4] = test system: IGROV-1; test: Induction of abberant mitosis in cisplatin-resistant human IGROV1/Pt1 cells overexpressing integrin alphaVbeta3 receptors xenografted in athymic Swiss mouse at 30 mg/kg, iv measured 24 hrs post second treatment by hematoxylin and eosin staining; type: functional, organism-based; design: dose 30 mg/kg
[5] = test system: SK-OV-3; test: Cytotoxicity against human SKOV3 cells after 72 hrs by coulter counter analysis; type: functional, cell-based; conditions: SK-OV-3, 72 h
[6] = Cytostatic activity against human dermal fibroblasts assessed as growth inhibition at 64 to 1000 nM after 72 hrs by coulter counter analysis; conditions: skin fibroblast, 1 µM
[7] = test system: MIA PaCa-2; test: Cytotoxicity against human MIAPaCa2 cells after 72 hrs by coulter counter analysis; type: functional, cell-based; conditions: MIA PaCa-2, 72 h
[8] = test system: U2OS; test: Cytotoxicity against human U2OS cells after 72 hrs by coulter counter analysis; type: functional, cell-based
[9] = Antitumor activity against cisplatin-resistant human IGROV1/Pt1 cells overexpressing integrin alphaVbeta3 receptors xenografted in athymic Swiss mouse assessed as tumor killing at 30 mg/kg, iv administered every 4 days for 4 times; type: functional, IGROV-1
[10] = Antitumor activity against cisplatin-resistant human IGROV1/Pt1 cells overexpressing integrin alphaVbeta3 receptors xenografted in athymic Swiss mouse assessed as tumor volume inhibition at 30 mg/kg, iv administered every 4 days for 4 times measured after 10 days relative to control; type: functional; conditions: IGROV-1
[11] = test system: IGROV-1; test: Cytotoxicity against cisplatin-resistant human IGROV1/Pt1 cells after 72 hrs by coulter counter analysis; type: functional, cell-based; conditions: IGROV-1, 72 h
[12] = test system: IGROV-1; test: Cytotoxicity against human IGROV1 cells after 72 hrs by coulter counter analysis; type: functional, cell-based; conditions: IGROV-1, 72 h
[13] = test system: Mus musculus; test: Toxicity in athymic Swiss mouse xenografted with cisplatin-resistant human IGROV1/Pt1 cells overexpressing integrin alphaVbeta3 receptors assessed as body weight loss at 30 mg/kg, iv administered every 4 days for 4 times; type: organism-based, IGROV-1; design: dose 30 mg/kg, route intravenous; conditions: in vivo, 96 h
[14] = target: Integrin alpha-V/beta-3 (Homo sapiens, UniProt P05106+P06756); test: Competitive inhibition of biotinylated vitronectin to integrin alphaVbeta3 receptor after 3 hrs by microplate reader analysis; type: protein-complex assay
[15] = target: Integrin alpha-V/beta-5 (Homo sapiens, UniProt P06756+P18084); test: Competitive inhibition of biotinylated vitronectin to integrin alphaVbeta5 receptor after 3 hrs by microplate reader analysis; type: protein-complex assay
[16] = Selectivity ratio of IC50 for integrin alphaVbeta5 receptor to IC50 for integrin alphaVbeta3 receptor
[17] = Half life in human plasma at 10 uM by HPLC analysis; type: ADME, cell-free
[18] = Solubility of the compound in 0.9% NaCl in H2O/Cremophor EL/ethanol 90:5:5 v/v at 1.92 mM after 2 days by HPLC analysis; type: physicochemical; conditions: 48 h, 1920 µM
[19] = Antitumor activity against cisplatin-resistant human IGROV1/Pt1 cells overexpressing integrin alphaVbeta3 receptors xenografted in athymic Swiss mouse assessed as tumor volume inhibition at 15 mg/kg, iv administered every 4 days for 4 times measured after 10 days relative to control; type: functional; conditions: IGROV-1
[20] = Half life in mouse plasma at 10 uM by HPLC analysis; type: ADME, cell-free
[21] = test system: IGROV-1; test: Antitumor activity against cisplatin-resistant human IGROV1/Pt1 cells overexpressing integrin alphaVbeta3 receptors xenografted in athymic Swiss mouse assessed as disappearance of tumor lasting at 15 mg/kg, iv administered every 4 days for 4 times measured up to 10 days; type: functional, organism-based; design: dose 15 mg/kg
[22] = test system: Mus musculus; test: Toxicity in athymic Swiss mouse xenografted with cisplatin-resistant human IGROV1/Pt1 cells overexpressing integrin alphaVbeta3 receptors assessed as body weight loss at 15 mg/kg, iv administered every 4 days for 4 times; type: organism-based, IGROV-1; design: dose 15 mg/kg, route intravenous; conditions: in vivo, 96 h
[23] = Antitumor activity against cisplatin-resistant human IGROV1/Pt1 cells overexpressing integrin alphaVbeta3 receptors xenografted in athymic Swiss mouse assessed as tumor killing at 15 mg/kg, iv administered every 4 days for 4 times; type: functional, IGROV-1
[24] = Stability of the compound in 0.9% NaCl in H2O/Cremophor EL/ethanol 90:5:5 v/v at 1.92 mM after 2 days by HPLC analysis; type: physicochemical; conditions: 48 h, 1920 µM
[25] = Stability of the compound in 0.9% NaCl in H2O/Cremophor EL/ethanol 90:5:5 v/v at 1.28 mM measured for 1 week by HPLC analysis; type: physicochemical; conditions: 168 h, 1280 µM
[26] = Solubility of the compound in 0.9% NaCl in H2O/Cremophor EL/ethanol 90:5:5 v/v at 1.28 mM measured for 1 week by HPLC analysis; type: physicochemical; conditions: 168 h, 1280 µM
[27] = Half life of the compound in glucose phosphate buffer at pH 7; type: physicochemical

Compound	pIC50 [14]	pIC50 [15]	Ratio IC50 [16]	pIC50 [3]	pIC50 [5]	growth inhibition (GI) [6]	pIC50 [7]	pIC50 [8]	pIC50 [11]	pIC50 [12]	other results
CC(=O)O[C@H]1C(=O)[C@@]2(C)[C@H]([C@H](OC(=O)c3ccccc3)[C@]3(O)C[C@H](OC(=O)[C@H](O)[C@@H](NC(=O)c4ccccc4)c4ccccc4)C(C)=C1C3(C)C)[C@]1(OC(C)=O)CO[C@@H]1C[C@@H]2O [PACLITAXEL]	–	–	–	8.28	8.57	Non-toxic	8.14	8.47	8.66	7.64	Activity [1]: Active; Activity [2]: inactive; Activity [4]: Active; LCK [9]: 0.7; inhibition in vivo at 30 mg/kg [10]: 76%; Activity [13]: 4%
N=C(N)NCCC[C@@H]1NC(=O)C[C@H]2NC(=O)[C@H](CNC(=O)[C@H](CC(=O)O)NC(=O)CNC1=O)N(Cc1ccc(CN)cc1)C2=O.O=C(O)C(F)(F)F	7.58	< 5.30	–	< 4.94	< 4.94	Non-toxic	< 4.94	< 5.20	< 4.74	< 5.92	–
N=C(N)NCCC[C@@H]1NC(=O)C[C@H]2NC(=O)[C@H](CNC(=O)[C@H](CC(=O)O)NC(=O)CNC1=O)N(Cc1ccccc1)C2=O	–	6.83	20	–	–	–	–	–	–	–	–
NC(N)=NCCC[C@@H]1NC(=O)C[C@@H]2NC(=O)[C@H](CNC(=O)[C@H](CC(=O)O)NC(=O)CNC1=O)N(Cc1ccccc1)C2=O	8.41	–	–	–	–	–	–	–	–	–	–
N=C(N)NCCC[C@@H]1NC(=O)C[C@@H]2C(=O)N(Cc3ccccc3)[C@@H](CNC(=O)[C@H](CC(=O)O)NC(=O)CNC1=O)C(=O)N2Cc1ccccc1 (stereo in doubt; 7a)	9.70	–	–	–	–	–	–	–	–	–	–
CC(=O)O[C@H]1C(=O)[C@@]2(C)[C@H]([C@H](OC(=O)c3ccccc3)[C@]3(O)C[C@H](OC(=O)[C@H](OC(=O)CCC(=O)NCc4ccc(CN5C(=O)[C@H]6CC(=O)N[C@@H](CCCNC(=N)N)C(=O)NCC(=O)N[C@@H](CC(=O)O)C(=O)NC[C@H]5C(=O)N6)cc4)[C@@H](NC(=O)c4ccccc4)c4ccccc4)C(C)=C1C3(C)C)[C@]1(OC(C)=O)CO[C@@H]1C[C@@H]2O	8.28	6.66	20	8.62	8.92	Non-toxic	8.64	7.89	8.31	7.21	half-life at 10 µM [17]: 2.38 h; solubility [18]: Insoluble; Activity [1]: Active; Activity [2]: Active; inhibition in vivo at 15 mg/kg [19]: 64%; half-life at 10 µM [20]: 2.75 h; Activity [21]: Active; Activity [22]: 0%; Activity [4]: Active; LCK [23]: 0.3; Stability [24]: Unstable; LCK [9]: 1.4; inhibition in vivo at 30 mg/kg [10]: 85%; Stability [25]: Stable; solubility [26]: soluble; Activity [13]: 3%
NC(N)=NCCC[C@@H]1NC(=O)C[C@H]2C(=O)N[C@H](CNC(=O)[C@H](CC(=O)O)NC(=O)CNC1=O)C(=O)N2Cc1ccc(CNC(=O)CCC(=O)O)cc1	8.39	7.12	–	–	–	–	–	–	–	–	–
CC(=O)O[C@H]1C(=O)[C@@]2(C)[C@H]([C@H](OC(=O)c3ccccc3)[C@]3(O)C[C@H](OC(=O)[C@H](OC(=O)CCC(=O)N[C@@H](CCC(=O)NCCCC[C@@H]4NC(=O)[C@@H](Cc5ccccc5)NC(=O)[C@H](CC(=O)O)NC(=O)CNC(=O)[C@H](CCCNC(=N)N)NC4=O)C(=O)NCCCC[C@@H]4NC(=O)[C@@H](Cc5ccccc5)NC(=O)[C@H](CC(=O)O)NC(=O)CNC(=O)[C@H](CCCNC(=N)N)NC4=O)[C@@H](NC(=O)c4ccccc4)c4ccccc4)C(C)=C1C3(C)C)[C@]1(OC(C)=O)CO[C@@H]1C[C@@H]2O	–	–	–	–	–	–	–	–	–	–	half-life [27]: 2 h
N=C(N)NCCC[C@@H]1NC(=O)C[C@H]2C(=O)N[C@H](CNC(=O)[C@H](CC(=O)O)NC(=O)CNC1=O)C(=O)N2Cc1ccccc1	8.12	6.67	20	–	–	–	–	–	–	–	–
N=C(N)NCCC[C@@H]1NC(=O)C[C@@H]2NC(=O)[C@@H](CNC(=O)[C@H](CC(=O)O)NC(=O)CNC1=O)N(Cc1ccccc1)C2=O	8.49	6.94	20	–	–	–	–	–	–	–	–
N=C(N)NCCC[C@@H]1NC(=O)C[C@@H]2C(=O)N[C@@H](CNC(=O)[C@H](CC(=O)O)NC(=O)CNC1=O)C(=O)N2Cc1ccccc1	8.68	7.10	20	–	–	–	–	–	–	–	–

Now from value to compound, other results behind:

pIC50 [14]	pIC50 [15]	Ratio IC50 [16]	Compound	pIC50 [3]	pIC50 [5]	growth inhibition (GI) [6]	pIC50 [7]	pIC50 [8]	pIC50 [11]	pIC50 [12]	other results
8.96	7.66	–	CC(=O)O[C@H]1C(=O)[C@@]2(C)[C@H]([C@H](OC(=O)c3ccccc3)[C@]3(O)C[C@H](OC(=O)[C@H](OC(=O)CCC(=O)NCc4ccc(CN5C(=O)[C@@H]6CNC(=O)[C@H](CC(=O)O)NC(=O)CNC(=O)[C@H](CCCNC(=N)N)NC(=O)C[C@@H]5C(=O)N6)cc4)[C@@H](NC(=O)c4ccccc4)c4ccccc4)C(C)=C1C3(C)C)[C@]1(OC(C)=O)CO[C@@H]1C[C@@H]2O	8.46	8.62	Non-toxic	8.60	8.24	8.62	7.32	–
9.00	8.85	20	N=C(N)NCCC[C@@H]1NC(=O)[C@@H]2CC[C@H]3CCC[C@@H](NC(=O)[C@H](CC(=O)O)NC(=O)CNC1=O)C(=O)N32	–	–	–	–	–	–	–	–
–	–	20	N=C(N)NCCC[C@@H]1NC(=O)C[C@H]2C(=O)N[C@H](CNC(=O)[C@H](CC(=O)O)NC(=O)CNC1=O)C(=O)N2Cc1ccc(CNC(=O)CCC(=O)O)cc1	–	–	–	–	–	–	–	–
8.07	6.29	20	CC(=O)O[C@H]1C(=O)[C@@]2(C)[C@H]([C@H](OC(=O)c3ccccc3)[C@]3(O)C[C@H](OC(=O)[C@H](OC(=O)CCC(=O)NCc4ccc(CN5C(=O)[C@@H]6CC(=O)N[C@@H](CCCNC(=N)N)C(=O)NCC(=O)N[C@@H](CC(=O)O)C(=O)NC[C@@H]5C(=O)N6)cc4)[C@@H](NC(=O)c4ccccc4)c4ccccc4)C(C)=C1C3(C)C)[C@]1(OC(C)=O)CO[C@@H]1C[C@@H]2O	8.24	8.80	Non-toxic	8.70	8.66	7.73	7.75	–
9.70	–	–	N=C(N)NCCC[C@@H]1NC(=O)C[C@@H]2C(=O)N(Cc3ccccc3)[C@@H](CNC(=O)[C@H](CC(=O)O)NC(=O)CNC1=O)C(=O)N2Cc1ccccc1 (stereo in doubt; 7b)	–	–	–	–	–	–	–	–
9.05	7.12	–	CC(=O)O[C@H]1C(=O)[C@@]2(C)[C@H]([C@H](OC(=O)c3ccccc3)[C@]3(O)C[C@H](OC(=O)[C@H](OC(=O)CCC(=O)NCc4ccc(CN5C(=O)[C@H]6CNC(=O)[C@H](CC(=O)O)NC(=O)CNC(=O)[C@H](CCCN=C(N)N)NC(=O)C[C@H]5C(=O)N6)cc4)[C@@H](NC(=O)c4ccccc4)c4ccccc4)C(C)=C1C3(C)C)[C@]1(OC(C)=O)CO[C@@H]1C[C@@H]2O	8.49	8.62	Non-toxic	8.74	8.17	8.43	7.46	–
9.70	–	–	N=C(N)NCCC[C@@H]1NC(=O)C[C@H]2C(=O)N(Cc3ccccc3)[C@H](CNC(=O)[C@H](CC(=O)O)NC(=O)CNC1=O)C(=O)N2Cc1ccccc1	–	–	–	–	–	–	–	–
